From patent US20240158393A1, “PYRIDONE COMPOUNDS AND METHODS OF USE” (Exelixis, Inc., priority 2021, published 2024)

Tests used:
[1] = target: T1, Human Mer (Homo sapiens, UniProt Q12866); assay: Human Mer kinase assay (33P radiometric / HTRF KinEase); assay type: biochemical; conditions: protocols of Examples C-1 and/or C-2
T1 construct: Human Mer (residues R557-E882 with H628Q and R794A, 0.7 nM); purchased Eurofins Pharma Discovery Services UK Limited (KinaseProfiler service)
T1 sequence (Q12866 557-882 limits assumed): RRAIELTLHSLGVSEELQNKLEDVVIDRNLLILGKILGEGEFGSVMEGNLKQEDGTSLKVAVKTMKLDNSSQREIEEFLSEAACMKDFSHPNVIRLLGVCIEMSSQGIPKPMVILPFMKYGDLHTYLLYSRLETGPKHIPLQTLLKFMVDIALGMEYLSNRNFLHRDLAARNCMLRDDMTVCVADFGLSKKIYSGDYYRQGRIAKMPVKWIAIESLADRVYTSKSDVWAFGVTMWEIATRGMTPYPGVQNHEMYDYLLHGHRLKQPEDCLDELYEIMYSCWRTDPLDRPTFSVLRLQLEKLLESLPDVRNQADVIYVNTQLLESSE
Summary of the method: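 Two formats yield IC50 values. HTRF KinEase used MER residues 528-999 with ATP at Km (40 μM), 1 μM biotin-peptide, 60 min RT, […], 10 concentrations. 33P filter assay used 0.7 nM Mer R557-E882 (H628Q/R794A), 10 μM ATP, 250 μM peptide, 40 min RT, top 1 μM.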

[2] = target: T2, Human Met (Homo sapiens, UniProt P08581); assay: Human Met kinase assay (33P radiometric / HTRF KinEase); assay type: biochemical; conditions: protocols of Examples D-1 and/or D-2; read-out: c-Met IC50
T2 construct: Human MET (residues 956-1390)
Summary of the method: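 Two formats gave IC50s by curve fitting. HTRF KinEase used MET residues 956-1390 with 1 μM biotin-peptide and 3.0 μM ATP (Km) for 40 min at room temperature, ten doses in 3% DMSO, 665/620 nm read. The 33P transfer assay used mutant Met R974-S1390 A1209G/V1290L (3.4 nM), 10 μM ATP, 250 μM peptide, pH 7.0, 40 min, nine doses from 1 μM.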

T2 sequence (P08581 974-1390 limits assumed): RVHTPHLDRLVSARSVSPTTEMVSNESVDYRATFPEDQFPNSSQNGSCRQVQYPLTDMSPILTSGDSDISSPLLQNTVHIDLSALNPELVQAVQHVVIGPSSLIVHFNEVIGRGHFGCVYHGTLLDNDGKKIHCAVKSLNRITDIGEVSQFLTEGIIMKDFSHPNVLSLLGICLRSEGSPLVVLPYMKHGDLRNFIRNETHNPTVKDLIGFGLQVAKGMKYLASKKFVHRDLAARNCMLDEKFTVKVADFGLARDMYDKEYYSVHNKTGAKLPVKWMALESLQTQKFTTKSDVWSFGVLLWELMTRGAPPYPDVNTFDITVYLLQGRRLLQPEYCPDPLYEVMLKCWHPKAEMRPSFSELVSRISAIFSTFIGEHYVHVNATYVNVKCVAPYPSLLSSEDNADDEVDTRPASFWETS

COCCOc1cc2nccc(Oc3ccc(NC(=O)c4cnc(C)c(/C=C/C(C)(C)C)c4O)cc3F)c2nc1OC [Compound 40, 5-[(E)-3,3-Dimethylbut-1-enyl]-N-[3-fluoro-4-[[6-methoxy-7-(2-methoxyethoxy)-1,5-naphthyridin-4-yl]oxy]phenyl]-4-hydroxy-6-methylpyridine-3-carboxamide]
IC50 [1]: ≤ 100 nM
IC50 [2]: ≤ 100 nM

COCCOc1cc2nccc(Oc3ccc(NC(=O)c4c(C)nc(C)c(C5=CCCC5)c4O)cc3F)c2nc1OC [Compound 41, 5-(Cyclopenten-1-yl)-N-[3-fluoro-4-[[6-methoxy-7-(2-methoxyethoxy)-1,5-naphthyridin-4-yl]oxy]phenyl]-4-hydroxy-2,6-dimethylpyridine-3-carboxamide]
IC50 [1]: ≤ 100 nM
IC50 [2]: ≤ 100 nM

COCCOc1cc2nccc(Oc3ccc(NC(=O)c4c(C)n(C)c(C)c(C5=CCCC5)c4=O)cc3F)c2nc1OC [Compound 42, 5-(Cyclopenten-1-yl)-N-[3-fluoro-4-[[6-methoxy-7-(2-methoxyethoxy)-1,5-naphthyridin-4-yl]oxy]phenyl]-1,2,6-trimethyl-4-oxopyridine-3-carboxamide]
IC50 [1]: ≤ 100 nM
IC50 [2]: ≤ 100 nM

COCCOc1cc2nccc(Oc3ccc(NC(=O)c4c(C)nc(C)c(C5=CCOCC5)c4O)cc3F)c2nc1OC [Compound 43, 5-(3,6-Dihydro-2H-pyran-4-yl)-N-[3-fluoro-4-[[6-methoxy-7-(2-methoxyethoxy)-1,5-naphthyridin-4-yl]oxy]phenyl]-4-hydroxy-2,6-dimethylpyridine-3-carboxamide]
IC50 [1]: ≤ 100 nM
IC50 [2]: ≤ 100 nM

COCCOc1cc2nccc(Oc3ccc(NC(=O)c4c(O)c(C5=CCOCC5)c(C)[n+](C)c4C)cc3F)c2nc1OC [Compound 44, 5-(3,6-Dihydro-2H-pyran-4-yl)-N-[3-fluoro-4-[[6-methoxy-7-(2-methoxyethoxy)-1,5-naphthyridin-4-yl]oxy]phenyl]-1,2,6-trimethyl-4-oxopyridine-3-carboxamide]
IC50 [1]: ≤ 100 nM
IC50 [2]: ≤ 100 nM

COCCOc1cc2nccc(Oc3ccc(NC(=O)c4c(C)n(C)c(C)c(/C=C/C(C)(C)C)c4=O)cc3F)c2nc1OC [Compound 45, 5-[(E)-3,3-Dimethylbut-1-enyl]-N-[3-fluoro-4-[[6-methoxy-7-(2-methoxyethoxy)-1,5-naphthyridin-4-yl]oxy]phenyl]-1,2,6-trimethyl-4-oxopyridine-3-carboxamide]
IC50 [1]: ≤ 100 nM
IC50 [2]: ≤ 100 nM

COc1cc2nccc(Oc3ccc(NC(=O)c4c(C)n(C)c(C)c(C5CC5)c4=O)cc3F)c2nc1OC [Compound 46, 5-Cyclopropyl-N-[4-[(6,7-dimethoxy-1,5-naphthyridin-4-yl)oxy]-3-fluorophenyl]-1,2,6-trimethyl-4-oxopyridine-3-carboxamide]
IC50 [1]: ≤ 100 nM
IC50 [2]: > 300 nM

COc1cc2nccc(Oc3cc(F)c(NC(=O)c4c(C)n(C)c(C)c(C5CC5)c4=O)cc3F)c2nc1OC [Compound 47, 5-Cyclopropyl-N-[4-[(6,7-dimethoxy-1,5-naphthyridin-4-yl)oxy]-2,5-difluorophenyl]-1,2,6-trimethyl-4-oxopyridine-3-carboxamide]
IC50 [1]: ≤ 100 nM
IC50 [2]: > 300 nM

COc1cc2nccc(Oc3ccc(NC(=O)c4c(C)n(C)c(C)c(C5CC5)c4=O)cc3)c2nc1OC [Compound 48, 5-Cyclopropyl-N-[4-[(6,7-dimethoxy-1,5-naphthyridin-4-yl)oxy]phenyl]-1,2,6-trimethyl-4-oxopyridine-3-carboxamide]
IC50 [1]: > 300 nM
IC50 [2]: > 300 nM

COc1cc2nccc(Oc3ccc(NC(=O)c4c(C)n(C)c(C)c(/C=C/C(C)(C)C)c4=O)cc3F)c2nc1OC [Compound 49, N-[4-[(6,7-Dimethoxy-1,5-naphthyridin-4-yl)oxy]-3-fluorophenyl]-5-[(E)-3,3-dimethylbut-1-enyl]-1,2,6-trimethyl-4-oxopyridine-3-carboxamide]
IC50 [1]: ≤ 100 nM
IC50 [2]: > 300 nM

COc1cc2nccc(Oc3ccc(NC(=O)c4c(C)n(C)c(C)c(/C=C/C5CC5)c4=O)cc3F)c2nc1OC [Compound 50, 5-[(E)-2-Cyclopropylethenyl]-N-[4-[(6,7-dimethoxy-1,5-naphthyridin-4-yl)oxy]-3-fluorophenyl]-1,2,6-trimethyl-4-oxopyridine-3-carboxamide]
IC50 [1]: ≤ 100 nM
IC50 [2]: > 300 nM

COCCOc1cc2nccc(Oc3ccc(NC(=O)c4c(C)n(C)c(C)c(/C=C/C5CC5)c4=O)cc3F)c2nc1OC [Compound 51, 5-[(E)-2-Cyclopropylethenyl]-N-[3-fluoro-4-[[6-methoxy-7-(2-methoxyethoxy)-1,5-naphthyridin-4-yl]oxy]phenyl]-1,2,6-trimethyl-4-oxopyridine-3-carboxamide]
IC50 [1]: ≤ 100 nM
IC50 [2]: ≤ 100 nM

COc1cc2nccc(Oc3ccc(NC(=O)c4c5n(c(C)c(C6=CCOCC6)c4=O)CCOC5)cc3F)c2nc1OC [Compound 79, 7-(3,6-Dihydro-2H-pyran-4-yl)-N-[4-[(6,7-dimethoxy-1,5-naphthyridin-4-yl)oxy]-3-fluorophenyl]-6-methyl-8-oxo-3,4-dihydro-1H-pyrido[2,1-c][1,4]oxazine-9-carboxamide]
IC50 [1]: ≤ 100 nM
IC50 [2]: ≤ 100 nM

COc1cc2nccc(Oc3ccc(NC(=O)c4c5n(c(C)c(C6=CCCCC6)c4=O)CCOC5)cc3F)c2nc1OC [Compound 80, 7-(Cyclohexen-1-yl)-N-[4-[(6,7-dimethoxy-1,5-naphthyridin-4-yl)oxy]-3-fluorophenyl]-6-methyl-8-oxo-3,4-dihydro-1H-pyrido[2,1-c][1,4]oxazine-9-carboxamide]
IC50 [1]: ≤ 100 nM
IC50 [2]: ≤ 100 nM

COc1cnc2c(Oc3ccc(NC(=O)c4c(C)n(C)c(C)c(C#N)c4=O)cc3F)ccnc2c1 [Compound 81, 5-Cyano-N-[3-fluoro-4-[(7-methoxy-1,5-naphthyridin-4-yl)oxy]phenyl]-1,2,6-trimethyl-4-oxopyridine-3-carboxamide]
IC50 [1]: > 300 nM
IC50 [2]: > 300 nM

COc1cc2nccc(Oc3ccc(NC(=O)c4c(C)n(C)c(C)c(C#N)c4=O)cc3)c2nc1OC [Compound 82, 5-Cyano-N-[4-[(6,7-dimethoxy-1,5-naphthyridin-4-yl)oxy]phenyl]-1,2,6-trimethyl-4-oxopyridine-3-carboxamide]
IC50 [1]: > 300 nM
IC50 [2]: > 300 nM

COCCOc1cc2nccc(Oc3cc(F)c(NC(=O)c4c(C)n(C)c(C)c(C#N)c4=O)cc3F)c2nc1OC [Compound 83, 5-Cyano-N-[2,5-difluoro-4-[[6-methoxy-7-(2-methoxyethoxy)-1,5-naphthyridin-4-yl]oxy]phenyl]-1,2,6-trimethyl-4-oxopyridine-3-carboxamide]
IC50 [1]: > 300 nM
IC50 [2]: > 300 nM

COc1cc2nccc(Oc3ccc(NC(=O)c4c(C)nc(C)c(C(N)=O)c4O)cc3F)c2nc1OC [Compound 84, 3-N-[4-[(6,7-Dimethoxy-1,5-naphthyridin-4-yl)oxy]-3-fluorophenyl]-4-hydroxy-2,6-dimethylpyridine-3,5-dicarboxamide]
IC50 [1]: > 300 nM
IC50 [2]: > 300 nM

COc1cc2nccc(Oc3ccc(NC(=O)c4c(C)nc(C)c(C(N)=O)c4O)cc3)c2nc1OC [Compound 85, 3-N-[4-[(6,7-Dimethoxy-1,5-naphthyridin-4-yl)oxy]phenyl]-4-hydroxy-2,6-dimethylpyridine-3,5-dicarboxamide]
IC50 [1]: > 300 nM
IC50 [2]: > 300 nM

COCCOc1cc2nccc(Oc3cc(F)c(NC(=O)c4c(C)nc(C)c(C(N)=O)c4O)cc3F)c2nc1OC [Compound 86, 3-N-[2,5-Difluoro-4-[[6-methoxy-7-(2-methoxyethoxy)-1,5-naphthyridin-4-yl]oxy]phenyl]-4-hydroxy-2,6-dimethylpyridine-3,5-dicarboxamide]
IC50 [1]: > 300 nM
IC50 [2]: > 300 nM

COc1cc2nccc(Oc3ccc(NC(=O)c4c(C)nc(C)c(C#N)c4O)cc3F)c2nc1OC [Compound 87, 5-Cyano-N-[4-[(6,7-dimethoxy-1,5-naphthyridin-4-yl)oxy]-3-fluorophenyl]-4-hydroxy-2,6-dimethylpyridine-3-carboxamide]
IC50 [1]: > 300 nM
IC50 [2]: > 300 nM

COc1cc2nccc(Oc3ccc(NC(=O)c4c(C)n(C)c(C)c(N5CCOCC5)c4=O)cc3F)c2nc1OC [Compound 88, N-[4-[(6,7-Dimethoxy-1,5-naphthyridin-4-yl)oxy]-3-fluorophenyl]-1,2,6-trimethyl-5-morpholin-4-yl-4-oxopyridine-3-carboxamide]
IC50 [1]: ≤ 100 nM
IC50 [2]: > 300 nM

COc1cc2nccc(Oc3ccc(NC(=O)c4c(C)n(C)c(C)c(N5CCCC5)c4=O)cc3F)c2nc1OC [Compound 89, N-[4-[(6,7-Dimethoxy-1,5-naphthyridin-4-yl)oxy]-3-fluorophenyl]-1,2,6-trimethyl-4-oxo-5-pyrrolidin-1-ylpyridine-3-carboxamide]
IC50 [1]: ≤ 100 nM
IC50 [2]: ≤ 100 nM
